Measured values published in US7317037B2, “Progesterone receptor modulators comprising pyrrole-oxindole derivatives and uses thereof” (Wyeth, priority 2004, dated 2008).

Legend:
[1] = test system: rat uterine decidualization; assay: Rat decidualization assay; format: in vivo; conditions: po, read-out: ED50 in the rat decidual assay
Method: B. Progestational and Antiprogestational Activity in Mature Ovariectomized Rats (Rat Decidualization Assay)
This assay is used to evaluate the effect of progestins and antiprogestins on rat uterine decidualization and compare the relative potencies of various test compounds.
Test compounds are dissolved in 100% ethanol and mixed with corn oil (vehicle). Stock solutions of the test compounds in oil (Mazola™) are then prepared by heating (˜80° C.) the mixture to evaporate ethanol. Test compounds are subsequently diluted with 100% corn oil or 10% ethanol in corn oil prior to the treatment of animals. No difference in decidual response is found when these two vehicles are compared. […]
Approximately 24 hr after the third injection, decidualization is induced in one of the uterine horns of anesthetized rats by scratching the antimesometrial luminal epithelium with a blunt 21 G needle. […] Approximately 24 hr following the final treatment, rats are sacrificed by […] and bodyweight measured. […]
In agonist mode, the increase in weight of the decidualized uterine horn is calculated by D-horn/C-horn and logarithmic transformation is used to maximize normality and homogeneity of variance. […] EC50 is calculated from the transformed value. […] IC50 is calculated from the retransformed value. […]

[2] = test system: menses induction; assay: Cynomolgus monkey menses induction assay; format: in vivo; conditions: 5 mg/kg po
Method: C. Cynomolgus Monkey […] Induction 1. Experimental Design The effects of administered compound(s) in either a single dose or a dose-response paradigm versus an appropriate control (vehicle alone) are determined. When a compound is tested at a single dose, a group of four animals will be used for the dose. In the dose response study, each experiment will involve up to 5 groups of animals (a control group and 4 groups of animals treated with varying doses of the compound). Experimental groups will contain 3-4 animals/group, since this sample size is commonly used in the literature and has been found appropriate based on our own experience. The animals are treated with test compounds once or twice daily for 4 days in the mid-luteal phase of the menstrual cycle to assess the efficacy of the compounds on the reproductive parameters menstruation. 2. Procedures Initially, animals are characterized in terms of their reproductive cyclicity by observing time of menstruation. Only those animals with two consecutive normal cycles are used to evaluate test compounds. […] will be determined by daily gross examination for vaginal bleeding. In each experiment, animals will be treated once or twice daily IV, IM, SC or PO with the test compound. Appropriate vehicles will be determined for each route of administration and will be specified through protocol amendments. […]

[3] = Cynomolgus monkey intravenous pharmacokinetics; conditions: in vivo, cynomolgus monkeys, 0.25 mg/kg i.v.
Excerpt: Therefore from the preceding data it is clear that the R6=fluorine group present in 5-(7-fluoro-3,3-dimethyl-2-oxo-2,3-dihydro-1H-indol-5-yl)-1-methyl-1H-pyrrole-2-carbonitrile dramatically improves the pharmacokinetic performance of the molecule. This improved pharmacokinetic performance translates in the cynomolgus menses induction assay to a dramatic improvement in activity.

AUC(0-inf) ([3]; read-out: exposure (AUC0-∞)): 578 ng·h/mL
half-life ([3]; read-out: mean half life (t1/2) (converted)): 8.8 h
Structure (SMILES): Cn1c(C#N)ccc1-c1cc(F)c2c(c1)C(C)(C)C(=O)N2 [5-(7-fluoro-3,3-dimethyl-2-oxo-2,3-dihydro-1H-indol-5-yl)-1-methyl-1H-pyrrole-2-carbonitrile]
ED50 [1]: 0.1 mg/kg
induction of early onset of menses [2]: 4 out of 5
